Patent US11952611B2, “Methods and systems for detection of antibiotic resistance” (Laboratory Corporation of America Holdings, priority 2017, dated 2024)

What was measured:
Format in all cases: cell-based, Staphylococcus aureus
MRSA = test: Recombinant phage luciferase assay, oxacillin vs cefoxitin (Table 1), MRSA strains
Experimental: Bacterial strains were serially diluted to approximately 1×10^3 CFU/mL and transferred to a 96-well plate at 135 μL per well. 15 μL of oxacillin or cefoxitin were added to the wells to reach a final concentration of 1.0 μg/mL or 2.0 μg/mL of oxicillin or 2.0 μg/mL, 4.0 μg/mL, 8.0 μg/mL, or 10.0 μg/mL of cefoxitin. The plate was then sealed and incubated at 37° C. for 2 hours. 10 μL of recombinant phage (1.6×10^8 pfu/mL) was added to each well. The plate was then re-sealed and incubated at 37° C. for 2 hours. A master mix was made containing 15 μL 5× lysis buffer, 50 μL luciferase assay buffer, and 1 μL luciferase substrate per well. 65 μL of master mix was added to each well. Luminescence from the reactions was read on a GLOMAX® Navigator and relative luminal units (RLU) for each reaction were analyzed. RLU values three times greater than an established background RLU level for LB (>750 RLU) were considered positive. The results, shown in Table 1, indicate that the recombinant phage are capable of detecting the tested bacterial strains.

12600 - MSSA = test: Table 6, MSSA alone
Experimental: (§1) Bacterial strains were serially diluted and transferred to a 96-well plate at 135 μL per well. 15 μL of cefoxitin was added to the wells to reach a final concentration of 1.8 μg/mL. The plate was then sealed and incubated at 37° C. for 2 hours or 3 hours. 10 μL of recombinant phage (1.6×10^8 pfu/mL) was added to each well. The plate was then re-sealed and incubated at 37° C. for an additional 1 or 2 hours. A master mix was made containing 15 μL 5× lysis buffer, 50 μL luciferase assay buffer, and 1 μL luciferase substrate per well. 65 μL of master mix was added to each well. Luminescence from the reactions was read on a GLOMAX® Navigator and relative luminal units (RLU) for each reaction were plotted and analyzed. RLU values three times greater than an established background RLU level for LB (>750 RLU) were considered positive. The results, shown in Table 6, indicate that samples with MRSA (38 CFU) can be distinguished from samples containing MSSA (up to 5088 CFU) using a 3-hour antibiotic/1-hour phage incubation protocol. Positive results are in bold. In Table 6, CFU values (318 CFU and 156 CFU) were experimentally validated by direct plating.

[1] = system: BAA-1720 - MRSA in co-culture with 12600 - MSSA; test: Table 6, MRSA in co-culture with MSSA
Experimental: as §1

BAA-1720 - MRSA = test: Table 6, MRSA alone; conditions: MSSA detected CFU 0, MRSA 38
Experimental: as §1

[2] = strain AR0463 MRSA, detected CFU 419
[3] = strain AR0465 MRSA, detected CFU 111
[4] = strain AR0472 MRSA, detected CFU 190
[5] = strain AR0476 MRSA, detected CFU 194
[6] = strain AR0481 MRSA, detected CFU 43
[7] = strain BAA-1720 MRSA, detected CFU 201
[8] = MSSA detected CFU 10176, MRSA 0
[9] = MSSA detected CFU 1272, MRSA 38
[10] = MSSA detected CFU 2544, MRSA 38
[11] = MSSA detected CFU 5088, MRSA 38
[12] = MSSA detected CFU 10176, MRSA 38

With `CO[C@@]1(NC(=O)Cc2cccs2)C(=O)N2C(C(=O)O)=C(COC(N)=O)CS[C@@H]21` [Cefoxitin, cefoxitin] the “Cefoxitin (RLU) 2 ug/mL” value (MRSA; [2]) was 1125 RLU, the “Cefoxitin (RLU) 4 ug/mL” value (MRSA; [2]) was 349 RLU and the “Cefoxitin (RLU) 8 ug/mL” value (MRSA; [2]) was 287 RLU. For the same compound, the “Cefoxitin (RLU) 10 ug/mL” value (MRSA; [2]) was 246 RLU, the “Cefoxitin (RLU) 2 ug/mL” value (MRSA; [3]) was 7815 RLU and the “Cefoxitin (RLU) 4 ug/mL” value (MRSA; [3]) was 5254 RLU. For the same compound, the “Cefoxitin (RLU) 8 ug/mL” value (MRSA; [3]) was 4619 RLU, the “Cefoxitin (RLU) 10 ug/mL” value (MRSA; [3]) was 2869 RLU and the “Cefoxitin (RLU) 2 ug/mL” value (MRSA; [4]) was 3538 RLU. For the same compound, the “Cefoxitin (RLU) 4 ug/mL” value (MRSA; [4]) was 229 RLU, the “Cefoxitin (RLU) 8 ug/mL” value (MRSA; [4]) was 239 RLU and the “Cefoxitin (RLU) 10 ug/mL” value (MRSA; [4]) was 220 RLU. The “Cefoxitin (RLU) 2 ug/mL” value (MRSA; [5]) was 1202 RLU, the “Cefoxitin (RLU) 4 ug/mL” value (MRSA; [5]) was 213 RLU and the “Cefoxitin (RLU) 8 ug/mL” value (MRSA; [5]) was 204 RLU. For the same compound, the “Cefoxitin (RLU) 10 ug/mL” value (MRSA; [5]) was 248 RLU, the “Cefoxitin (RLU) 2 ug/mL” value (MRSA; [6]) was 3499 RLU and the “Cefoxitin (RLU) 4 ug/mL” value (MRSA; [6]) was 983 RLU. For the same compound, the “Cefoxitin (RLU) 8 ug/mL” value (MRSA; [6]) was 222 RLU, the “Cefoxitin (RLU) 10 ug/mL” value (MRSA; [6]) was 250 RLU and the “Cefoxitin (RLU) 2 ug/mL” value (MRSA; [7]) was 14910 RLU. For the same compound, the “Cefoxitin (RLU) 4 ug/mL” value (MRSA; [7]) was 11250 RLU, the “Cefoxitin (RLU) 8 ug/mL” value (MRSA; [7]) was 7123 RLU and the “Cefoxitin (RLU) 10 ug/mL” value (MRSA; [7]) was 6431 RLU. For the same compound, the “2 HR AB + 2 HR Phage 1.8 ug/mL” value (12600 - MSSA; MSSA detected CFU 156, MRSA 0) was 423 RLU, the “3 HR AB + 1 HR Phage 1.8 ug/mL” value (12600 - MSSA; MSSA detected CFU 156, MRSA 0) was 196 RLU and the “2 HR AB + 2 HR Phage 1.8 ug/mL” value (12600 - MSSA; MSSA detected CFU 318, MRSA 0) was 608 RLU. The “3 HR AB + 1 HR Phage 1.8 ug/mL” value (12600 - MSSA; MSSA detected CFU 318, MRSA 0) was 231 RLU, the “2 HR AB + 2 HR Phage 1.8 ug/mL” value (12600 - MSSA; MSSA detected CFU 636, MRSA 0) was 956 RLU and the “3 HR AB + 1 HR Phage 1.8 ug/mL” value (12600 - MSSA; MSSA detected CFU 636, MRSA 0) was 275 RLU. For the same compound, the “2 HR AB + 2 HR Phage 1.8 ug/mL” value (12600 - MSSA; MSSA detected CFU 1272, MRSA 0) was 1685 RLU, the “3 HR AB + 1 HR Phage 1.8 ug/mL” value (12600 - MSSA; MSSA detected CFU 1272, MRSA 0) was 321 RLU and the “2 HR AB + 2 HR Phage 1.8 ug/mL” value (12600 - MSSA; MSSA detected CFU 2544, MRSA 0) was 4715 RLU. For the same compound, the “3 HR AB + 1 HR Phage 1.8 ug/mL” value (12600 - MSSA; MSSA detected CFU 2544, MRSA 0) was 621 RLU, the “2 HR AB + 2 HR Phage 1.8 ug/mL” value (12600 - MSSA; MSSA detected CFU 5088, MRSA 0) was 8583 RLU and the “3 HR AB + 1 HR Phage 1.8 ug/mL” value (12600 - MSSA; MSSA detected CFU 5088, MRSA 0) was 901 RLU. The “2 HR AB + 2 HR Phage 1.8 ug/mL” value (12600 - MSSA; [8]) was 16340 RLU, the “3 HR AB + 1 HR Phage 1.8 ug/mL” value (12600 - MSSA; [8]) was 1098 RLU and the “2 HR AB + 2 HR Phage 1.8 ug/mL” value ([1]; MSSA detected CFU 156, MRSA 38) was 5084 RLU. The “3 HR AB + 1 HR Phage 1.8 ug/mL” value ([1]; MSSA detected CFU 156, MRSA 38) was 3976 RLU, the “2 HR AB + 2 HR Phage 1.8 ug/mL” value ([1]; MSSA detected CFU 318, MRSA 38) was 7143 RLU and the “3 HR AB + 1 HR Phage 1.8 ug/mL” value ([1]; MSSA detected CFU 318, MRSA 38) was 4567 RLU. The “2 HR AB + 2 HR Phage 1.8 ug/mL” value ([1]; MSSA detected CFU 636, MRSA 38) was 7217 RLU, the “3 HR AB + 1 HR Phage 1.8 ug/mL” value ([1]; MSSA detected CFU 636, MRSA 38) was 3946 RLU and the “2 HR AB + 2 HR Phage 1.8 ug/mL” value [1, 9] was 6263 RLU. The “3 HR AB + 1 HR Phage 1.8 ug/mL” value [1, 9] was 4930 RLU, the “2 HR AB + 2 HR Phage 1.8 ug/mL” value [1, 10] was 10730 RLU and the “3 HR AB + 1 HR Phage 1.8 ug/mL” value [1, 10] was 3749 RLU. The “2 HR AB + 2 HR Phage 1.8 ug/mL” value [1, 11] was 11400 RLU, the “3 HR AB + 1 HR Phage 1.8 ug/mL” value [1, 11] was 3548 RLU and the “2 HR AB + 2 HR Phage 1.8 ug/mL” value [1, 12] was 13260 RLU. The “3 HR AB + 1 HR Phage 1.8 ug/mL” value [1, 12] was 5347 RLU, the “2 HR AB + 2 HR Phage 1.8 ug/mL” value (BAA-1720 - MRSA) was 4218 RLU and the “3 HR AB + 1 HR Phage 1.8 ug/mL” value (BAA-1720 - MRSA) was 3136 RLU.
